This is an account of results in patent US9206128B2 (Constellation Pharmaceuticals, Inc., priority 2011, dated 2015).

For one test, the target named is EZH2 (Homo sapiens, UniProt Q15910). Briefly: EZH2 activity inhibition assay (rPRC2, 3H SAM, biotinylated oligonucleosomes, FlashPlate). Format: biochemical. As to conditions: rPRC2, 2 nM EZH2, 0.2 μM 3H SAM, top concentration 80 μM.
A further test addresses Y641N EZH2 (Homo sapiens, UniProt Q15910, Y641N). Nature of the test: Y641N EZH2 activity inhibition assay (as EZH2 assay, reconstituted H3K27Me2 oligonucleosomes as substrate). In kind it is biochemical. As to conditions: Y641N EZH2 mutant enzyme.

Molecules are shown by their SMILES. Bounds are passed on as bounds.

Sequence of Y641N EZH2 (Q15910 whole entry Y641N): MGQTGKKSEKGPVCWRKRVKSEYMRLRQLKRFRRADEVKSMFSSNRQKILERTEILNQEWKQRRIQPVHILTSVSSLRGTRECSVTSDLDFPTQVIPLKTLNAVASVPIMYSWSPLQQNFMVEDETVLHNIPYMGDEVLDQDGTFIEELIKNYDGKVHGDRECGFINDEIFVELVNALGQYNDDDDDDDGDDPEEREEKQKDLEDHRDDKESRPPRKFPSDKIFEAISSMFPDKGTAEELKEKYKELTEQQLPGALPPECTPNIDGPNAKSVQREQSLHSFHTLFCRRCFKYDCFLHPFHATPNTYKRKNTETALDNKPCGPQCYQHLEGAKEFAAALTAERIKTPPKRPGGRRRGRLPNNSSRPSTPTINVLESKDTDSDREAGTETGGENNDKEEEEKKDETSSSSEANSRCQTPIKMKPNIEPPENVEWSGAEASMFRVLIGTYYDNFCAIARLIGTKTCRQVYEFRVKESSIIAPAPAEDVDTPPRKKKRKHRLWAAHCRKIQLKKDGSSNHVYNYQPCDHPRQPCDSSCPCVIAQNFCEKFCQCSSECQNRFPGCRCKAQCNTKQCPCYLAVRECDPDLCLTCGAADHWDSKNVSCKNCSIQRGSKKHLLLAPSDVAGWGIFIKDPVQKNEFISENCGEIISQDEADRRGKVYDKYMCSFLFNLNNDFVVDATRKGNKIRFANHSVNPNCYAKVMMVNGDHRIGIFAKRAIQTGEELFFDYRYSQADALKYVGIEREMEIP
Sequence of Y641N EZH2 (O75530 whole entry partner): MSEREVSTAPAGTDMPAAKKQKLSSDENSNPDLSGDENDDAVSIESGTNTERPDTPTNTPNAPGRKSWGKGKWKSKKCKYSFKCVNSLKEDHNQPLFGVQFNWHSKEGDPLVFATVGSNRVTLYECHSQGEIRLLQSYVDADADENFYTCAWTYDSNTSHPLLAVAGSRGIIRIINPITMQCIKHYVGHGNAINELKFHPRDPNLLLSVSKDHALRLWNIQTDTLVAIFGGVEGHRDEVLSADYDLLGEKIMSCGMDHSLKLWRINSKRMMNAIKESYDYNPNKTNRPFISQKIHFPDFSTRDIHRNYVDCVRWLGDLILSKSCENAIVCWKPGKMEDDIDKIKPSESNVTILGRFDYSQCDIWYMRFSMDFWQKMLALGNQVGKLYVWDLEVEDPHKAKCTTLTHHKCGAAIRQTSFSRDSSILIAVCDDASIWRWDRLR
Sequence of Y641N EZH2 (Q15022 whole entry partner): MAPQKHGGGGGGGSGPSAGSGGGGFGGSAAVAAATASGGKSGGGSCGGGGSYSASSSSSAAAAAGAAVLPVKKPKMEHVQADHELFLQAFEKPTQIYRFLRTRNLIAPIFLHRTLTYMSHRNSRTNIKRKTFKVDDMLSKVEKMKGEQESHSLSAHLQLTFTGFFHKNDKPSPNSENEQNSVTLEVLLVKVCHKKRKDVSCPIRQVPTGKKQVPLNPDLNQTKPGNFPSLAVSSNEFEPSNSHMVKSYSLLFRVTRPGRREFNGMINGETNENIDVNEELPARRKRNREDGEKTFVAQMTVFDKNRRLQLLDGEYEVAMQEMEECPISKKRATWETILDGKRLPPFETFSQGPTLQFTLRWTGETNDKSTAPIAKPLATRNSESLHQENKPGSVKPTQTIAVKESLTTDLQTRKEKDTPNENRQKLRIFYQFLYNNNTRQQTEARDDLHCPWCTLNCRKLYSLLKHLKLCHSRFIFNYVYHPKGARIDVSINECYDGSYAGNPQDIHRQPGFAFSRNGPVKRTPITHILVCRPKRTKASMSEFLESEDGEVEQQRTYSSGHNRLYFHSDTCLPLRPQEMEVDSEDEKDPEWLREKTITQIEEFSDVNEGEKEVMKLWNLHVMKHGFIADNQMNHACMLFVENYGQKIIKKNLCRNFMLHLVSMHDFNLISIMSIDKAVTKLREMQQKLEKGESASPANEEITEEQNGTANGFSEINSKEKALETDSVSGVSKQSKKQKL
Sequence of EZH2 (Q15910 whole entry): as the sequence (Q15910 whole entry Y641N) above, with N641Y counted along it
Sequence of EZH2 (O75530 whole entry partner): as the sequence (O75530 whole entry partner) above
Sequence of EZH2 (Q15022 whole entry partner): as the sequence (Q15022 whole entry partner) above

The IC50 is the concentration needed to halve the response being measured. Lower therefore signals greater potency in that assay. Turning to `Cc1cc(C)c(CNC(=O)c2ccc(C(C)Oc3ccccc3)nn2)c(=O)[nH]1` (stereo not drawn) [Compound I-182, N-((2-hydroxy-4,6-dimethylpyridin-3-yl)methyl)-6-(1-phenoxyethyl)pyridazine-3-carboxamide], the IC50 was 1 to 10 µM at EZH2 and more than 80 µM against Y641N EZH2.

For `Cc1cc(C)c(CNC(=O)c2ccc(C(CO)Oc3ccccc3)cc2)c(=O)[nH]1` (stereo not drawn) [Compound I-183, 4-(2-hydroxy-1-phenoxyethyl)-N-((2-hydroxy-4,6-dimethylpyridin-3-yl)methyl)benzamide], the IC50 at EZH2 was 1 to 10 µM; against Y641N EZH2 it was more than 80 µM.

Turning to `Cc1cc(C)c(CNC(=O)c2ccc(C(C)OC3CCOC3)cc2)c(=O)[nH]1` (stereo not drawn) [Compound I-184, N-((2-hydroxy-4,6-dimethylpyridin-3-yl)methyl)-4-(1-(tetrahydrofuran-3-yloxy)ethyl)benzamide], the IC50 on EZH2 was less than 1 µM; at Y641N EZH2 it was 1 to 10 µM.

Regarding `Cc1cc(C)c(CNC(=O)c2ccc(C(C)OC3CCOCC3)cc2)c(=O)[nH]1` (stereo not drawn) [Compound I-192], the IC50 on EZH2 was less than 1 µM; against Y641N EZH2 it was 1 to 10 µM.

As to `COCC(Oc1ccccc1)c1ccc(C(=O)NCc2c(C)cc(C)[nH]c2=O)cc1` (stereo not drawn) [Compound I-193], the IC50 against EZH2 and on Y641N EZH2 was more than 80 µM each time.

For the compound `CNc1cc(C)[nH]c(=O)c1CNC(=O)c1ccc(Oc2ccccc2)cc1` [Compound I-194, N-((2-hydroxy-6-methyl-4-(methylamino)pyridin-3-yl)methyl)-4-phenoxybenzamide], the IC50 against EZH2 is less than 1 µM; at Y641N EZH2 it was more than 80 µM.

For the compound `COc1cc(C)[nH]c(=O)c1CNC(=O)c1ccc(Oc2ccccc2)cc1` [Compound I-195, N-((2-hydroxy-4-methoxy-6-methylpyridin-3-yl)methyl)-4-phenoxybenzamide], the figures for the IC50 at EZH2 and at Y641N EZH2 were less than 1 µM and 1 to 10 µM, respectively.

`Cc1cc(N)c(CNC(=O)c2ccc(Oc3ccccc3)cc2)c(=O)[nH]1` [Compound I-196, N-((4-amino-2-hydroxy-6-methylpyridin-3-yl)methyl)-4-phenoxybenzamide]: the IC50 at EZH2 is 1 to 10 µM; against Y641N EZH2, more than 80 µM.

For the compound `Cc1cc(C)c(CNC(=O)c2c(C)cn(C(C)c3ccccc3)c(=O)c2C)c(=O)[nH]1` (stereo not drawn) [Compound I-200, N-((4,6-dimethyl-2-oxo-1,2-dihydropyridin-3-yl)methyl)-3,5-dimethyl-2-oxo-1-(1-phenylethyl)-1,2-dihydropyridine-4-carboxamide], the IC50 is less than 1 µM against EZH2 and 1 to 10 µM against Y641N EZH2.
